In patent US20260232767A1, “INTERLEUKIN-23 RECEPTOR ANTAGONIST PEPTIDES FOR USE IN THE TREATMENT OF PSORIASIS” (Janssen Pharmaceutica NV, priority 2023, published 2026):

Tested on: subjects with moderate-to-severe plaque psoriasis
Test: BSA, Example 1
Assay type: in vivo, human
Details: each dose group vs placebo; Week 16
Description: Subjects suitable for the method of the present invention satisfy one or more criteria for inclusion, as described below. In some embodiments, the present invention relates to the method and/or use, where the subject has a psoriasis effected Body Surface Area (BSA) of at least 10% before the start of treatment. Herein the term BSA will mean the measure of the percentage of total area of your body affected by psoriasis.
Clinician-reported outcomes including Psoriasis Area and Severity Index (PASI), Body Surface Area (BSA), Investigator's Global Assessment (IGA), Nail Psoriasis Area and Severity Index (NAPSI), Fingernail Physician's Global Assessment (f-PGA), Static Physician's Global Assessment of Genitalia (s-PGA-G), Physician's Global Assessment of Hands and/or Feet (hf-PGA), and Scalp Specific Investigator Global Assessment (ss-IGA) were obtained at Week 0, 8, and 16. PASI and IGA were also obtained at Weeks 1, 2, 4, and 12, and at Week 20, four weeks after the administration of the tablets has stopped.

CC(=O)NCCCC[C@@H]1NC(=O)[C@H](Cc2c[nH]c3c(C)cccc23)NC(=O)[C@H]([C@@H](C)O)NC(=O)[C@H](CC(N)=O)NC(=O)[C@@H](NC(C)=O)C(C)(C)SSC(C)(C)[C@@H](C(=O)N[C@@H](Cc2ccc(OCCN)cc2)C(=O)N[C@@H](Cc2ccc3ccccc3c2)C(=O)NC2(C(=O)N[C@@H](CCC(=O)O)C(=O)N[C@@H](CC(N)=O)C(=O)N[C@@H](Cc3cccnc3)C(=O)N(C)CC(N)=O)CCOCC2)NC1=O [IL-23 receptor antagonist peptide, Ac-[Pen]*-N-T-[W(7-Me)]-[Lys(Ac)]-[Pen]*-Phe[4-(2-aminoethoxy)]-[2-Nal]-[THP]-E-N-[3-Pal]-Sarc-NH2 (*[Pen]-[Pen]* formdisulfidebond)]
Improvement (reduction) in BSA from baseline: significantly greater improvement
